Patent publication US6989390B2, “Amonafide salts” (priority 2002, dated 2006)
Structures can show the parent of a compound that is named as a salt.

Assays:
[1] = Minimum amount of water/ethanol (1.5/4 v/v) required to dissolve the crude salt at boil (recrystallization); type: physicochemical; details: minimum water/ethanol (1.5/4 v/v) to dissolve crude product at boil; salt made by the method in column 2
Excerpt: For comparative purposes, between and among organic salts prepared in this manner and for the purposes of subsequent Example 3, Table 3, crude reaction products were recrystalized from water/ethanol (1.5/4 v/v per gram of salt) using the minimum amount of solvent to effect dissolution at boil.
In the case of succinic acid, the organic acid was dispensed as a half-equivalent in order to generate mitonafide hemisuccinate. […] Crude product that was isolated from the hydrogenation reaction mixture was analyzed for purity by high pressure liquid chromatography (HPLC) according to the conditions described in Table 1 above. The crude product was recrystallized from water/ethanol (1.5/4 v/v) using the minimum amount of solvent required to dissolve the crude product at boil, which is shown in the last column of Table 3 for each salt. The recrystallized product was then analyzed for purity by HPLC.
The purities of the crude salts were assessed by HPLC according to the conditions described in Table 1 above. The crude salts were then recrystallized from the minimum amount of water/ethanol (1.5/4 v/v) using the minimum amount of solvent required to dissolve the crude product at boil, which is shown in the last column of Table 3 for each salt. The resulting purified salts were again assessed for purity.
The hydrochloride and methanesulfonic acid salts of amonafide were prepared according to U.S. Pat. No. 5,420,137. Exemplary procedures are as follows: 3 g of crude amonafide free base, obtained as described in the previous two paragraphs, above, were dissolved under reflux in 60 ml of virtually anhydrous ethanol. Subsequently 1 ml of 35% (1 equivalent, estimated) strength hydrochloric acid was added dropwise while shaking vigorously. After cooling, the resulting crystals were filtered off and washed with 10 ml of anhydrous ethanol. The methanesulfonic acid salt was obtained using the same procedure, but replacing hydrochloric acid with 0.8 ml of methanesulfonic acid. The purity was assessed by HPLC using the conditions described in Table 1. The isolated products were then recrystallized from water/ethanol (1.5/4 v/v) using the minimum amounts of solvent required to dissolve the crude product at boil, which are shown for each salt in Table 3. The resulting purified salts were again assessed for purity.
The hydrochloride salt of amonafide was obtained by the method of Zee-Chang et al., U.S. Pat. No. 4,614,820. Exemplary conditions are as follows: a mixture of the hydrochloride salt of N-(dimethylaminoethyl)-3-nitro-1,8-naphthalimide and 10% palladium-on-charcoal in water was hydrogenated at room temperature under 40 lbs/in^2 of hydrogen for one hour. […] To the mixture was added 3 ml of concentrated hydrochloric acid. It was then filtered and the filtrate was evaporated to dryness under reduced pressure. The residue was triturated with 30 ml of absolute ethanol and filtered. The resulting solid was then washed with ether and dried. The purity was assessed by HPLC using the conditions described in Table 1. The crude product was then recrystallized from water/ethanol (1.5/4 v/v) using the minimum amount of solvent (40 mL/g) required to dissolve the crude product at boil. The resulting purified salts were again assessed for purity.

[2] = Solubility assessment of amonafide salts (50, 100, 200 mg in 1 ml USP water or isotonic saline); type: physicochemical
Protocol: A number of organic acid amonafide salts of the present invention were tested for their solubility in aqueous medium and compared with the solubility of the corresponding hydrochloride and methansolufonic acid salts. […] Solutions were allowed to equilibrate for 1 hour, their dissolution status noted, and then refrigerated for an additional hour (at 2° C.). Thereafter, the samples were returned to room temperature and examined for precipitate formation and allowed to equilibrate for another hour until a final inspection for dissolution status.

[3] = 50 mg salt in 1 ml 0.9% sodium chloride (saline), 0 hours
[4] = 50 mg salt in 1 ml 0.9% sodium chloride (saline), 1 hours
[5] = 50 mg salt in 1 ml distilled water, 0 hours
[6] = 50 mg salt in 1 ml distilled water, 1 hours
[7] = 100 mg salt in 1 ml 0.9% sodium chloride (saline), 0 hours
[8] = 100 mg salt in 1 ml 0.9% sodium chloride (saline), 1 hours
[9] = 100 mg salt in 1 ml distilled water, 0 hours
[10] = 100 mg salt in 1 ml distilled water, 1 hours

**Q.** For `CN(C)CCN1C(=O)c2cccc3cc(N)cc(c23)C1=O.O=C(O)CC(O)(CC(=O)O)C(=O)O` [Amonafide Citrate], which “Solvent” value [1] is on record?
**A.** Its value is 25 mL/g.

**Q.** Which results are given for Amonafide succinate?
**A.** Dissolution Status [2, 3]: Insoluble; Dissolution Status [2, 4]: Insoluble; Dissolution Status [2, 5]: Soluble; Dissolution Status [2, 6]: Soluble; Dissolution Status [2, 7]: Insoluble; Dissolution Status [2, 8]: Insoluble; Dissolution Status [2, 9]: Insoluble; Dissolution Status [2, 10]: Insoluble; Solvent [1]: 20 mL/g

**Q.** With amonafide maleate as the compound, how does the “Dissolution Status” value [2, 3] read?
**A.** The value was “Insoluble”.

**Q.** What about the “Dissolution Status” value [2, 4] of the same compound?
**A.** Its value is “Insoluble”.

**Q.** And the “Dissolution Status” value [2, 5]?
**A.** Its value is “Insoluble”.

**Q.** And the “Dissolution Status” value [2, 6]?
**A.** Its value is “Insoluble”.

**Q.** And the “Solvent” value [1]?
**A.** The value was 20 mL/g.

**Q.** With `CN(C)CCN1C(=O)c2cccc3cc(N)cc(c23)C1=O.O=C(O)c1ccccc1O` [Amonafide salicylate] as the compound, how does the “Solvent” value [1] read?
**A.** The value was 35 mL/g.

**Q.** With Amonafide Aspartate as the compound, how does the “Solvent” value [1] read?
**A.** Its value is 30 mL/g.

**Q.** Which “Dissolution Status” value [2, 3] does the source give for amonafide fumarate here?
**A.** The value was “Insoluble”.

**Q.** What about the “Dissolution Status” value [2, 4] of the same compound?
**A.** The value was “Insoluble”.

**Q.** And the “Dissolution Status” value [2, 5]?
**A.** Its value is “Insoluble”.

**Q.** And the “Dissolution Status” value [2, 6]?
**A.** Its value is “Insoluble”.

**Q.** And the “Solvent” value [1]?
**A.** Its value is 25 mL/g.

**Q.** With Amonafide pyruvate as the compound, how does the “Dissolution Status” value [2, 3] read?
**A.** Its value is “Soluble”.

**Q.** And the “Dissolution Status” value [2, 4]?
**A.** The value was “Soluble”.

**Q.** What about the “Dissolution Status” value [2, 5] of the same compound?
**A.** The value was “Soluble”.

**Q.** What about the “Dissolution Status” value [2, 6] of the same compound?
**A.** Its value is “Soluble”.

**Q.** What about the “Dissolution Status” value [2, 7] of the same compound?
**A.** Its value is “Soluble”.

**Q.** And the “Dissolution Status” value [2, 8]?
**A.** The value was “Soluble”.

**Q.** What about the “Dissolution Status” value [2, 9] of the same compound?
**A.** The value was “Soluble”.

**Q.** What about the “Dissolution Status” value [2, 10] of the same compound?
**A.** The value was “Soluble”.

**Q.** And the “Dissolution Status” value ([2]; 200 mg salt in 1 ml 0.9% sodium chloride (saline), 0 hours)?
**A.** Its value is “Partially Soluble”.

**Q.** And the “Dissolution Status” value ([2]; 200 mg salt in 1 ml 0.9% sodium chloride (saline), 1 hours)?
**A.** Its value is “Partially Soluble”.

**Q.** And the “Dissolution Status” value ([2]; 200 mg salt in 1 ml distilled water, 0 hours)?
**A.** The value was “Soluble”.

**Q.** What about the “Dissolution Status” value ([2]; 200 mg salt in 1 ml distilled water, 1 hours) of the same compound?
**A.** Its value is “Soluble”.

**Q.** What about the “solubility in distilled water and in saline at high concentration compared with the hydrochloride salt forms / organic salts” value ([2]; text summary of Table 4) of the same compound?
**A.** The value was “more soluble”.

**Q.** What about the “Solvent” value [1] of the same compound?
**A.** The value was 20 mL/g.

**Q.** For `CN(C)CCN1C(=O)c2cccc3cc(N)cc(c23)C1=O.CS(=O)(=O)O` [Amonafine methanesulfonate, reference compound], which “Solvent” value [1] is on record?
**A.** The value was 25 mL/g.

**Q.** For “amonafide hemisuccinate [Amonafide hemi-succinate]”, which “Solvent” value [1] is on record?
**A.** Its value is 15 mL/g.

**Q.** Which “Solvent” value [1] does the source give for `CN(C)CCN1C(=O)c2cccc3cc(N)cc(c23)C1=O.O=C(O)CO` [Amonafide glycolate] here?
**A.** Its value is 12.5 mL/g.

**Q.** For `CN(C)CCN1C(=O)c2cccc3cc(N)cc(c23)C1=O.O=C(O)CCCCC(=O)O` [Amonafide Adipate], which “Solvent” value [1] is on record?
**A.** Its value is 25 mL/g.

**Q.** For `CN(C)CCN1C(=O)c2cccc3cc(N)cc(c23)C1=O` [Amonafide HCl, Amonafide Monohydrochloride, reference compound], which “solubility in the test panel of Tables 3 and 4” value ([2]; monohydrochloride prepared by salt exchange, 99.2% pure) is on record?
**A.** The value was “low solubility”.

**Q.** What about the “Solvent” value [1] of the same compound?
**A.** Its value is 40 mL/g.

**Q.** For `CN(C)CCN1C(=O)c2cccc3cc(N)cc(c23)C1=O.O=C(O)CC(=O)O` [Amonafide malonate, amonafide malonate], which “Solvent” value [1] is on record?
**A.** The value was 20 mL/g.

**Q.** Which “Solvent” value [1] does the source give for `CN(C)CCN1C(=O)c2cccc3cc(N)cc(c23)C1=O.O=C(O)C(O)C(O)C(=O)O` [Amonafide L-tartrate] here?
**A.** The value was 20 mL/g.

**Q.** For `CN(C)CCN1C(=O)c2cccc3cc(N)cc(c23)C1=O.O=C(O)CCC(=O)C(=O)O` [Amonafide 2-oxoglutarate], which “Solvent” value [1] is on record?
**A.** Its value is 30 mL/g.
